Experimental data: patent US20050158721A1, “Tissue rejection” (priority 2002, published 2005)

Experiments:
[1] = patients treated after cadaveric renal transplantation; result not always reproducible; cited from earlier work
[2] = tested on: primary human tubular epithelial cell (HTEC); assay: SA β Gal staining at pH6 in primary tubular epithelial cultures as a measure of senescence, with or without H2O2; format: cell-based; conditions: 10 ng/ml tacrolimus (FK); cells challenged with oxidant H2O2 (75 μM); FIG. 3
Method: HTEC culture. Primary HTEC cultures were grown at 37° C. 5% CO2 in DMEM/Glutamax-1/+ pyridoxine medium (Life technologies) plus […] ml^−1 Penstrep. Cells were stained for SA β Gal activity as described in Joosten et al 2003.
Building upon the rodent observations, the inventor has established a primary human tubular epithelial cell (HTEC) in vitro system to model and evaluate premature human renal senescence. […] This is shown in FIG. 3, which illustrates SA β Gal staining at pH6 in primary tubular epithelial cultures as a measure of senescence.
Cultures were grown ±100 ng/ml cyclosporin (cyc) or 10 ng/ml tacrolimus (FK) and evaluated with or without oxidising 75 μM H2O2 treatment.
This has profound implications for transplant outcome and current clinical practice.

Compound | 1 and 4 year graft survival rate [1] | first acute rejection episodes [1] | effect on oxidant stress, judged by SA β Gal staining at pH6 [2]
superoxide dismutase | significantly improved | reduction | –
C=CC[C@@H]1/C=C(\C)C[C@H](C)C[C@H](OC)[C@H]2O[C@@](O)(C(=O)C(=O)N3CCCC[C@H]3C(=O)O[C@H](/C(C)=C/[C@@H]3CC[C@@H](O)[C@H](OC)C3)[C@H](C)[C@@H](O)CC1=O)[C@H](C)C[C@@H]2OC [tacrolimus] | – | – | protect against the effects of oxidant stress
